Test results published in patent publication US20260078135A1, “POLYCYCLIC QUINAZOLINES FOR INHIBITION OF ERBB2” (Enliven Inc., priority 2022, published 2026).

Key:
Ba/F3 ERBB2 YVMA = Ba/F3 ERBB2 YVMA (Homo sapiens, UniProt P04626, DUP772-775, cells depend on it); assay: Cell viability assay (CellTiter Glo), Ba/F3 cells engineered to express ERBB2 YVMA; type: cell-based, mouse; details: Ba/F3 cells expressing human ERBB2 YVMA mutant, 72 hours, read-out: Ba/F3 ERBB2 YVMA, IC50
Method: Cells were treated with compounds, and cell viability was measured as a metric of kinase inhibition.
BT-474, A431, MDA-MB-175VII, NCI-H1781, MCF7, and Ba/F3 cell lines were tested. The Ba/F3 cell line is IL-3-dependent mouse cell line derived from the C3H mouse strain. Ba/F3 cell lines were engineered to express human ERBB2 or EGFR kinases, rendering the cells IL-3 independent. The lines were generated via retroviral transduction utilizing a Moloney murine leukemia virus (MMLV) promoter, and constructs are stably integrated into the cell genome. The sequences of the ERBB2 and EGFR genes used were NCBI Reference Sequences NM_004448.3 and NM_005228.3, respectively.
BT-474, A431, MDA-MB-175VII, NCI-H1781 and MCF7 cells were grown in the appropriate growth medium as described in Table B2 below, and harvested at 50-80% confluence. BT-474, A431, MDA-MB-175VII, NCI-H1781 and MCF7 cells were counted and seeded at 2,000 or 1,500 cells per well in 384-well tissue culture plates (see Table B2). Similarly, Ba/F3 cell lines engineered to express EGFR, ERBB2, or ERBB2 mutants were grown, harvested, counted and seeded at 3000 cells per well in 96-well plates. A subset of wells contained media only (low control, “LC”).
Table B1 provides the growth media and number of cells seeded per well for the each cell line.
Compounds were dissolved in DMSO and serially diluted. Serially-diluted compound or a DMSO only control (high control, “HC”) was added to the plated cells in each well. Compounds were tested at concentrations of about 10 μM to 0.51 nM, using three-fold dilutions. The final proportion of DMSO never exceeded 0.1%.
Plates were placed in a 37° C., 5% CO2 incubator for 72 hours. Plates were then removed from the incubator and equilibrated for 15 minutes at room temperature. 40 μl of CellTiter Glo reagent (Promega) was added to measure the relative level of metabolically active cells by quantifying intracellular ATP concentrations. Plates were incubated for 30 minutes at room temperature, and luminescence was measured. Percent viability was normalized to a vehicle control only using the following formula: % viability=100×(Lumsample−LumLC)/(LumHC−LumLC). Graphical curves were fitted using a nonlinear regression model with a sigmoidal dose response.

[1] = molecular target: T1, phosphorylated ERBB2 (pERBB2) (Homo sapiens, UniProt P04626); assay: Detection of phosphorylated ERBB2 (pERBB2) by ELISA in BT-474 cells; type: cell-based; details: four hour incubation
T1 construct: endogenous in cells; host or cells: BT-474
How it was run: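 BT-474 cells were treated with compounds (fourfold dilutions, 10 μM to 0.01 nM final) for 4 h at 37 °C, then lysed. pERBB2 in lysates was quantified by ELISA with an HRP anti-phosphotyrosine detection antibody and TMB read at 450 nm; % relative activity was normalized to no-cell and 0.1% DMSO controls.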

[2] = molecular target: T2, phosphorylated EGFR (pEGFR) (Homo sapiens, UniProt P00533); assay: Detection of phosphorylated EGFR (pEGFR) by AlphaLISA in EGF-stimulated A431 cells; type: cell-based; details: A431 cells (10% FBS), 4 hours incubation, EGF 30 ng/mL for 10 minutes
T2 construct: performed to measure phosphorylated EGFR levels using A431 cells (10% FBS); endogenous in cells; host or cells: A431
How it was run: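 A431 cells in 10% FBS were preincubated with compound for 4 h at 37 °C, then stimulated with 30 ng/mL EGF for 10 min and lysed. pEGFR read by AlphaLISA. % inhibition normalised to DMSO and staurosporine controls; IC50 from four-parameter curve fit.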

Chain of Ba/F3 ERBB2 YVMA (P04626 with tags, fused parts or gaps DUP772-775): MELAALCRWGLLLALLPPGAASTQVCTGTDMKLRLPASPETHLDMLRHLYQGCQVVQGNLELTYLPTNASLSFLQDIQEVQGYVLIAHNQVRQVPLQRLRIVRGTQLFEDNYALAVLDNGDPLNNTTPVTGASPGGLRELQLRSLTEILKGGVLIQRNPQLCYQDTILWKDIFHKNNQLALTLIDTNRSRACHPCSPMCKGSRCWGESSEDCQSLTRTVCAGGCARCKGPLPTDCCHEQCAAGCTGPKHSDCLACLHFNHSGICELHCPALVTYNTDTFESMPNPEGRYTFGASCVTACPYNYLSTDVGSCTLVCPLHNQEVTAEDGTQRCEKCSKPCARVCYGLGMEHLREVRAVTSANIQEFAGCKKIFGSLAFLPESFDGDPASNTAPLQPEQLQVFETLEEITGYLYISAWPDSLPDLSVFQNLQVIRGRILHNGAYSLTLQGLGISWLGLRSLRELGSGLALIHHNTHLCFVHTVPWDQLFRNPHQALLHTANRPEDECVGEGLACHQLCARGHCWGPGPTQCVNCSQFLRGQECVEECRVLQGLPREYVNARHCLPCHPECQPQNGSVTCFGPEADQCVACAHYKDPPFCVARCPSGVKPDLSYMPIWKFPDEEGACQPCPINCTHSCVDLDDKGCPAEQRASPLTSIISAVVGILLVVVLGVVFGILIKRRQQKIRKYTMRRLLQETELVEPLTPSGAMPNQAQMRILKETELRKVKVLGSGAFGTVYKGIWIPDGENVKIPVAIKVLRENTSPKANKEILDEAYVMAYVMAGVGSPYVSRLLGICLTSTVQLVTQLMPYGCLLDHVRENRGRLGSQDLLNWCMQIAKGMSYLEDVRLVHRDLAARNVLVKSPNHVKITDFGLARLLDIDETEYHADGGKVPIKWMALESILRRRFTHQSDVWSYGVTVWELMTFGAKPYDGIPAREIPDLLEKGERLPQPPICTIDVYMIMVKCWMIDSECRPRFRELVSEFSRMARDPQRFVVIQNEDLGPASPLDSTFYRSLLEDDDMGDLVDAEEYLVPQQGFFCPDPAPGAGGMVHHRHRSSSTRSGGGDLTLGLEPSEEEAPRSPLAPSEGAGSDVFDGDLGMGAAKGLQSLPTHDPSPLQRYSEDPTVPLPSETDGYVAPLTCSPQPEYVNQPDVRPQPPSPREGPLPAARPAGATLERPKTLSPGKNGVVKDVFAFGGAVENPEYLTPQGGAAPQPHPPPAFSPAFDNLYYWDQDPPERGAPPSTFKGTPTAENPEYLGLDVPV
T1 sequence (P04626 23-1255): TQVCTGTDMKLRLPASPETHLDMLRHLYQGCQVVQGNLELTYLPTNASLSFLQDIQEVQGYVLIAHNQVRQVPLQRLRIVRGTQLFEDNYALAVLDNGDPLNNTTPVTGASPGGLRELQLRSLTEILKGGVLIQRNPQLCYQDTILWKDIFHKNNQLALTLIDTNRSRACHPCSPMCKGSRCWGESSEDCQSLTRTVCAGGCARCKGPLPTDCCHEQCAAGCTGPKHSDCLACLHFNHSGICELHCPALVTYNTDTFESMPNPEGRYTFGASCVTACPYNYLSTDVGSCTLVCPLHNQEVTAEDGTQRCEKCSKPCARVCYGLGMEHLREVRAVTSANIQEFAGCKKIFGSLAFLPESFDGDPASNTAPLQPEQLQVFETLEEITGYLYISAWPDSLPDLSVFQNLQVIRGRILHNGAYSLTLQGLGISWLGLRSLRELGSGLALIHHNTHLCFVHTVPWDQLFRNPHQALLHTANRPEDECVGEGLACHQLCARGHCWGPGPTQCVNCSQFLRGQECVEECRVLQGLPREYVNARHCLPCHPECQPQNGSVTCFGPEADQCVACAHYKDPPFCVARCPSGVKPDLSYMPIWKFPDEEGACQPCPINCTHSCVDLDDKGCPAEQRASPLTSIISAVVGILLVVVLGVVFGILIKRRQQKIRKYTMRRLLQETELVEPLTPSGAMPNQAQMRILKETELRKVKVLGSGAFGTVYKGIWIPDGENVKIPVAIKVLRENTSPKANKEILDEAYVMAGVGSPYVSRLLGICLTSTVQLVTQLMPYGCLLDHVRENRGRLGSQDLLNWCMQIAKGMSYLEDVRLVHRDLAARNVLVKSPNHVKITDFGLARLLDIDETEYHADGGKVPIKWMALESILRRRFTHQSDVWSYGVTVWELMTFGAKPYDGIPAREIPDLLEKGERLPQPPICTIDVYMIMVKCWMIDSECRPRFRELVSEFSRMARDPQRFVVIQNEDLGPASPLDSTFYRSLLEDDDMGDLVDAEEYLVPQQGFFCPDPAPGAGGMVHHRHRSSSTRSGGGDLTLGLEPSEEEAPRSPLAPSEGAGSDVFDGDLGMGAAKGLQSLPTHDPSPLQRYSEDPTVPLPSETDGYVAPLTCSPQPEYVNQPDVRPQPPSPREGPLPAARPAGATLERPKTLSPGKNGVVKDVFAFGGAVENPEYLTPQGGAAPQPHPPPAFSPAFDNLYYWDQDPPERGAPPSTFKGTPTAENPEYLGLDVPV
T2 sequence (P00533 25-1210): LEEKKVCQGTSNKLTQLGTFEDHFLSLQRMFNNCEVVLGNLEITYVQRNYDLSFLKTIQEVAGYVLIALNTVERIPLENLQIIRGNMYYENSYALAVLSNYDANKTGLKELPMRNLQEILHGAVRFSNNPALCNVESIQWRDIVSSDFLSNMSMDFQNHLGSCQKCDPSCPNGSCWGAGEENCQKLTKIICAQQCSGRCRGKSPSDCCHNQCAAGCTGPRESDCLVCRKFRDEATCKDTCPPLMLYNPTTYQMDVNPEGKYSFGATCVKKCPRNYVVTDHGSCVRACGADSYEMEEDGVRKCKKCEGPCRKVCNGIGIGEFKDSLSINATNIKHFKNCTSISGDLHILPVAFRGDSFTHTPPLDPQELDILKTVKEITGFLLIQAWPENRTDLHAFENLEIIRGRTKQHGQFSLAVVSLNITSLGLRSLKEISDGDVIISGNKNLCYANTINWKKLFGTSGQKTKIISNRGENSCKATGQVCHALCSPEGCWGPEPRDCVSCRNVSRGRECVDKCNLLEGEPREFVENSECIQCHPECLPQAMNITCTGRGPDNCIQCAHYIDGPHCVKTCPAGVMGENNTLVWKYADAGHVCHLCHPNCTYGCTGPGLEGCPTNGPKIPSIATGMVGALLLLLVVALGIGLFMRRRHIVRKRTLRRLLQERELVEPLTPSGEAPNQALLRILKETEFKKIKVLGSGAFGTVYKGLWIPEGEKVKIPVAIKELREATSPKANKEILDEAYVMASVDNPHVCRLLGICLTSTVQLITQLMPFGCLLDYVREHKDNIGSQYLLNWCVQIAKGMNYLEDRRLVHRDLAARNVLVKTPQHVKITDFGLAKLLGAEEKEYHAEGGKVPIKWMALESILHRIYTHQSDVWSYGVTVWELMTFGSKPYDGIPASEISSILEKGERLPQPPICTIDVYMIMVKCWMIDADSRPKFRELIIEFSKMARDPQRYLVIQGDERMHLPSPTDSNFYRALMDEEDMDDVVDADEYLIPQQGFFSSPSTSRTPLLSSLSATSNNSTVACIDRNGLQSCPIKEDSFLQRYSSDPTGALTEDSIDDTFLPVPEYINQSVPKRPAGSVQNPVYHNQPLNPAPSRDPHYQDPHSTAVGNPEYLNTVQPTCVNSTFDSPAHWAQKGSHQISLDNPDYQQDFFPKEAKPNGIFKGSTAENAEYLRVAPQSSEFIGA

Row | SMILES | IC50 [1] | IC50 [2] | GI50 (Ba/F3 ERBB2 YVMA)
1 | Cc1cc(Nc2ncnc3ccc4c(c23)OC[C@H]2CN4CCN2C(=O)/C=C/[C@H](C)N(C)C)c(F)cc1Oc1ccn2ncnc2c1 [Compound 91, (4S,E)-1-((3R)-13-((4-([1,2,4]triazolo[1,5-a]pyridin-7-yloxy)-2-fluoro-5-methylphenyl)amino)-2,3,5,6-tetrahydro-4H-3,7-methano[1,4,7]oxadiazonino[2,3-f]quinazolin-4-yl)-4-(dimethylamino)pent-2-en-1-one triformate] | 147 nM | > 10000 nM | 164 nM
2 | Cc1cc(Nc2ncnc3cnc4c(c23)O[C@H]2CCNC[C@H]2N4C)ccc1Oc1ccc2c(c1)ncn2C [Compound 132, (7aR,11aS)-7-methyl-N-(3-methyl-4-((1-methyl-1H-benzo[d]imidazol-5-yl)oxy)phenyl)-7a,8,9,10,11,11a-hexahydro-7H-pyrido[4,3-b]pyrimido[5′,4′:4,5]pyrido[2,3-e][1,4]oxazin-1-amine] | 307 nM | > 10000 nM | > 500 nM
3 | Cc1cc(Nc2ncnc3cnc4c(c23)O[C@@H]2CCN(C)C[C@H]2N4C)ccc1Oc1ccc2c(c1)ncn2C [Compound 133, (7aR,11aR)-7,9-dimethyl-N-(3-methyl-4-((1-methyl-1H-benzo[d]imidazol-5-yl)oxy)phenyl)-7a,8,9,10,11,11a-hexahydro-7H-pyrido[4,3-b]pyrimido[5′,4′:4,5]pyrido[2,3-e][1,4]oxazin-1-amine] | 41.9 nM | > 10000 nM | 60.1 nM
4 | Cc1cc(Nc2ncnc3cnc4c(c23)OC[C@H]2COCCN42)ccc1Oc1ccc2c(c1)ncn2C [Compound 122, (R)—N-(3-methyl-4-((1-methyl-1H-benzo[d]imidazol-5-yl)oxy)phenyl)-6a,7,9,10-tetrahydro-6H-[1,4]oxazino[4,3-d]pyrimido[5′,4′:4,5]pyrido[3,2-b][1,4]oxazin-4-amine] | 26.4 nM | > 10000 nM | 30.9 nM
5 | C=CC(=O)N1CCN2C[C@H]1COc1c2ccc2ncnc(Nc3ccc(Oc4ccn5ncnc5c4)c(C)c3)c12 [Compound 24, 1-((3S)-13-((4-([1,2,4]triazolo[1,5-a]pyridin-7-yloxy)-3-methylphenyl)amino)-2,3,5,6-tetrahydro-4H-3,7-methano[1,4,7]oxadiazonino[2,3-f]quinazolin-4-yl)prop-2-en-1-one] | 430 nM | > 10000 nM | > 500 nM
6 | C=CC(=O)N1CCN2c3ccc4ncnc(Nc5ccc(Oc6ccc7c(c6)ncn7C)c(C)c5)c4c3OC[C@@H]2C1 [Compound 21, (S)-1-(4-((3-methyl-4-((1-methyl-1H-benzo[d]imidazol-5-yl)oxy)phenyl)amino)-6a,7,9,10-tetrahydropyrazino[1′,2′:4,5][1,4]oxazino[2,3-f]quinazolin-8(6H)-yl)prop-2-en-1-one] | 22.7 nM | 575 nM | 16.2 nM
7 | Cc1cc(Nc2ncnc3cc4c(nc23)N2CCNC[C@@H]2CO4)ccc1Oc1ccn2ncnc2c1 [Compound 35, (R)—N-(4-([1,2,4]triazolo[1,5-a]pyridin-7-yloxy)-3-methylphenyl)-1,2,3,4,4a,5-hexahydropyrazino[1,2-d]pyrimido[4′,5′:5,6]pyrido[3,2-b][1,4]oxazin-11-amine] | 127 nM | > 10000 nM | > 500 nM
8 | Cc1cc(Nc2ncnc3cnc4c(c23)OC[C@H]2CN(C)CCN42)ccc1Oc1ccc2c(c1)ncn2C [Compound 120, (R)-8-methyl-N-(3-methyl-4-((1-methyl-1H-benzo[d]imidazol-5-yl)oxy)phenyl)-6,6a,7,8,9,10-hexahydropyrazino[1,2-d]pyrimido[5′,4′:4,5]pyrido[3,2-b][1,4]oxazin-4-amine] | 26.4 nM | > 10000 nM | 44.3 nM
9 | CN(C)C/C=C/C(=O)N1CCN2c3ccc4ncnc(Nc5cc(F)c(Oc6ccn7ncnc7c6)cc5F)c4c3OC[C@@H]2C1 [Compound 98, (S,E)-1-(4-((4-([1,2,4]triazolo[1,5-a]pyridin-7-yloxy)-2,5-difluorophenyl)amino)-6a,7,9,10-tetrahydropyrazino[1′,2′:4,5][1,4]oxazino[2,3-f]quinazolin-8(6H)-yl)-4-(dimethylamino)but-2-en-1-one] | 60 nM | > 10000 nM | 16.6 nM

The next molecules have a lower IC50 [1] than those just listed; values first:

Row | IC50 [1] | IC50 [2] | SMILES | GI50 (Ba/F3 ERBB2 YVMA)
10 | 19.9 nM | 246 nM | Cc1cc(Nc2ncnc3ccc4c(c23)OC[C@H]2CN4CCN2C(=O)/C=C/CN(C)C)ccc1Oc1ccc2c(c1)ncn2C [Compound 31, (E)-4-(dimethylamino)-1-((3R)-13-((3-methyl-4-((1-methyl-1H-benzo[d]imidazol-5-yl)oxy)phenyl)amino)-2,3,5,6-tetrahydro-4H-3,7-methano[1,4,7]oxadiazonino[2,3-f]quinazolin-4-yl)but-2-en-1-one] | 12.6 nM
11 | 7.19 nM | 540 nM | C=CC(=O)N1CCN2c3ccc4ncnc(Nc5ccc(Oc6ccn7ncnc7c6)c(C)c5)c4c3OC[C@H]2C1 [Compound 6, (R)-1-(4-((4-([1,2,4]triazolo[1,5-a]pyridin-7-yloxy)-3-methylphenyl)amino)-6a,7,9,10-tetrahydropyrazino[1′,2′:4,5][1,4]oxazino[2,3-f]quinazolin-8(6H)-yl)prop-2-en-1-one] | 6.23 nM
12 | 14.2 nM | 84.4 nM | Cc1cc(Nc2ncnc3ccc4c(c23)OC[C@H]2CN4CCN2C(=O)/C=C/CN(C)C)ccc1Oc1ccc2c(c1)nnn2C [Compound 79, (E)-4-(dimethylamino)-1-((3R)-13-((3-methyl-4-((1-methyl-1H-benzo[d][1,2,3]triazol-5-yl)oxy)phenyl)amino)-2,3,5,6-tetrahydro-4H-3,7-methano[1,4,7]oxadiazonino[2,3-f]quinazolin-4-yl)but-2-en-1-one] | 6.04 nM
13 | 11.3 nM | 593 nM | Cc1cc(Nc2ncnc3cnc4c(c23)OC[C@H]2CN(C(=O)/C=C/CN(C)C)CCN42)ccc1Oc1ccn2ncnc2c1 [Compound 113, (R,E)-1-(4-((4-([1,2,4]triazolo[1,5-a]pyridin-7-yloxy)-3-methylphenyl)amino)-6a,7,9,10-tetrahydropyrazino[1,2-d]pyrimido[5′,4′:4,5]pyrido[3,2-b][1,4]oxazin-8(6H)-yl)-4-(dimethylamino)but-2-en-1-one] | 3.57 nM
14 | 5.77 nM | 84.7 nM | C=CC(=O)N1CCN2c3nc4c(Nc5ccc(Oc6ccn7ncnc7c6)c(C)c5)ncnc4cc3OC[C@@H]2C1 [Compound 1, (S)-1-(11-((4-([1,2,4]triazolo[1,5-a]pyridin-7-yloxy)-3-methylphenyl)amino)-1,2,4a,5-tetrahydropyrazino[1,2-d]pyrimido[4′,5′:5,6]pyrido[3,2-b][1,4]oxazin-3(4H)-yl)prop-2-en-1-one] | 1.6 nM
15 | 8.87 nM | 341 nM | CN(C)C/C=C/C(=O)N1CCN2C[C@@H]1COc1c2ccc2ncnc(Nc3ccc(Oc4ccn5ncnc5c4)cc3F)c12 [Compound 78, (E)-1-((3R)-13-((4-([1,2,4]triazolo[1,5-a]pyridin-7-yloxy)-2-fluorophenyl)amino)-2,3,5,6-tetrahydro-4H-3,7-methano[1,4,7]oxadiazonino[2,3-f]quinazolin-4-yl)-4-(dimethylamino)but-2-en-1-one] | 10.9 nM
16 | 7.89 nM | 517 nM | C=CC(=O)N1CCN2c3ccc4ncnc(Nc5ccc(Oc6ccn7ncnc7c6)c(C)c5)c4c3OC[C@@H]2C1 [Compound 5, (S)-1-(4-((4-([1,2,4]triazolo[1,5-a]pyridin-7-yloxy)-3-methylphenyl)amino)-6a,7,9,10-tetrahydropyrazino[1′,2′:4,5][1,4]oxazino[2,3-f]quinazolin-8(6H)-yl)prop-2-en-1-one] | 4.62 nM
